{
  "source": "patent US20050044581A1",
  "about": "“Animals and cells containing a mutated alpha2/omega1 gene” (priority 2003, published 2005)",
  "assay_type_in_all_cases": "in vivo, mouse",
  "key": {"[1]": {"system": "α2/δ1 R217A wild type and homozygous mice", "assay": "Tail Suspension Test (TST)", "settings": "R217A mutant vs wildtype mice; dosed 120 minutes prior; FIG. 5", "experimental": "Male α2/δ1 R217A wild type and homozygous mice, weighing 22-35 grams, were used for testing. Animals were maintained on a 12 hour light/dark cycle with food and water available ad libitum. Animals were food deprived overnight the day before testing. On test day, animals were placed by groups of 8 into holding cages to acclimate for sixty minutes prior to dosing. Vehicle or pregabalin was administered 120 minutes prior to testing at a dose volume of 10 mL/kg. At test time, a piece of transparent tape was placed around the distal portion of the tail. The tape was then attached to a hook connected to an electro-mechanical apparatus that recorded the amount of time a mouse moved and the force used during movement. The hook was located at the top of a 24×18 cm testing chamber. Animals were completely suspended in air approximately 5 cm off the floor of the chamber for six minutes. Mean time of struggling and force of movement were then calculated for each group of eight.\nAnimals are placed by groups of eight into holding cages to acclimate for thirty to sixty minutes prior to dosing. Treatments are generally administered 60 to 120 minutes prior to testing, although this also varies with specific compounds. At test time, a piece of scotch tape is placed around the distal portion of the tail. […]"}, "[2]": {"system": "R217A mutant lines and background strain mice", "assay": "Maximal electroshock procedure (MES)", "experimental": "WT mice were tested at 0.1 mA, HET mice were tested at 0.4 mA and KI mice were tested at 0.7 InA. Each experiment included a no-shock vehicle control group for direct comparison to the concurrent vehicle punished-responding group to determine percent suppression of drinking. […] Sedation was noted by the observer as previously described. […] Electroshock in mice was delivered using corneal electrodes with varied electroshock intensity. Current was delivered (60 Hz sinusoidal current, 11 to 17 mA baseline to peak vs. 50 mA for 0.2 s) using a constant-current stimulator (Wahlquist Instruments, Salt Lake City, Utah). The intensities of current necessary to produce tonic extensor seizures for each mouse strain and mutant lines in all of the mice were determined. These currents were then used for further testing of mice with pregabalin. All dose-response testing was conducted at the previously determined time of peak drug effect. Groups of 10 mice each were give various intraperitoneal doses of pregabalin dissolved in 0.9% saline, diazepam (veh) or phenytoin and given in a volume of 10 ml/kg of body weight. […] At least four groups of mice and each animal was employed once. The animals, pretreated with different doses of the tested drugs, were challenged with one electroshock at previously determined times of peak drug effect (pregabalin: 120 min; diazepam: 60 min; phenytoin; 60 min)"}, "[3]": {"system": "α2/δ1 R217A wild type, heterozygous and homozygous mice", "assay": "Formalin foot-pad procedure (formalin-induced hyperalgesia)", "settings": "PO 120 minutes prior to testing, FIG. 4", "experimental": "Male α2/δ1 R217A wild type, heterozygous, and homozygous mice, weighing 19-40 grams, were used for testing. Animals were maintained on a 12 hour light/dark cycle with food and water available ad libitum. Animals were food deprived overnight the day before testing. On test day, animals were acclimated to the observation chambers for approximately 60 min. The observation chambers were eight inch square boxes consisting of solid, acrylic plastic mirrors for the floor and 3 walls. The fourth wall was clear acrylic that allowed for observation. Animals were dosed PO with either vehicle or pregabalin, 120 minutes prior to testing at a dose volume 10 ml/kg. At test time, animals received a 25 μL injection of a 5% formalin solution in water in the plantar surface of the left hind foot. […] These behaviors were timed using a hand-held stopwatch and recorded at 5 min intervals. Data was analyzed by the two distinct phases of responding. Early phase responding included Minutes 0-10, and late phase responding included Minutes 11-45. The total time spent licking by drug-treated animals in each phase was compared to the total time spent licking by vehicle-treated animals."}},
  "data": [
    {"compound": "CC(C)C[C@H](CN)CC(=O)O", "note": "[pregabalin]", "values": [
      {"measurement": "effect in Tail Suspension Test", "setting": "[1]", "result": "exerts its sedative and/or anxiolytic effect in TST through the α2/δ1 polypeptide"},
      {"measurement": "potency in protecting against seizures", "setting": "[2]; mutant mice vs wild-type, heterozygous or back-ground strains", "result": "less potent"},
      {"measurement": "anticonvulsant effects", "setting": "[2]; −/− mice as compared to +/+ mice, FIG. 9", "result": "reduced"},
      {"measurement": "sensitivity to effects in MES", "setting": "[2]; −/− mice vs +/+ mice, FIG. 9", "result": "less sensitive"},
      {"measurement": "efficacy on formalin-induced hyperalgesia", "setting": "[3]", "result": "reduced efficacy"}
    ]}
  ]
}
